In US20220016049A1, “TISSUE REPAIR” (Regenall Limited, priority 2019, published 2022):

What was measured:
[1] = horse; cited from earlier work
Tendon injury = Tendon injury in a horse, recovery following treatment with vitamin A (case report); format: in vivo; conditions: retinyl palmitate oral 750,000 IU twice daily, at least 4 weeks
Source text: Tendon Injury—Recovery Following Treatment with Vitamin A [table] [table] Treatment with Vitamin A was initiated approximately 20 days after the initial injury. Retinyl palmitate (93.8% Retinol Equivalent) Oral 750,000 IU […] Continuing (at least 4 weeks) Functional recovery has been good considering the severity of the lesion. […] It is not uncommon for such lesions to take between 12 to 18 months to heal.

Spinal cord injury = assay: Patient-reported outcome measure, spinal cord injury, recovery following treatment with vitamin A; format: in vivo, human
Source text: Patient-Reported Outcome Measure
Spinal Cord Injury—Recovery Following Treatment with Vitamin A
Vitamin A 50,000 IU (from Retinyl palmitate and fish liver oil)
Starting in October 2018. For three months taking vitamin A 10,000×3. Increasing in end January 2019 10,000×5.
Vitamin A (from cod liver oil and vitamin A palmitate)
For 3 months 3 tablets a day and for 3 months 5 tablets a day
21 years later in February 2019
I take 50,000 IU in one administration in the morning daily
Continuing: Almost 2 months

Vitamin A
Vitamin A toxicity level [1]: around 1,000 IU/kg body weight (BW)/day | Functional recovery (Tendon injury; Horse subject 1 (polo pony, 14 years), started approximately 20 days after injury): good | Size of the lesion (ultrasonography) (Tendon injury; Horse subject 1): good reduction in the size of the lesion | Pain reduction (right lower back) (Spinal cord injury; Human Subject 1, injury 1963 (T4), oral 50,000 IU once daily, 3 months, started 56 years after injury): 10-15% | Duration of pain (Spinal cord injury; Human Subject 1, oral 50,000 IU once daily, 3 months): much less | First recovery found (walking control, balance) (Spinal cord injury; Human Subject 2, spinal stenosis, both legs paralyzed, oral 30,000 IU per day for 3 months from October 2018): more walking control and balance | Strength, balance and movement control (Spinal cord injury; Human Subject 2, March 2019, oral 50,000 IU per day from end of January 2019): much stronger, more balanced, more movement control | Walking without any support on even level (Spinal cord injury; Human Subject 2, beginning of April 2019, oral 50,000 IU per day): 30-50 meters | Improvement of pain level (Spinal cord injury; Human Subject 3, disc/nerve pain around knee, oral 50,000 IU daily, 4-5 months): 80% | Neck flexibility (Spinal cord injury; Human Subject 4, injury at C4/C5 in 1998, oral 50,000 IU daily, almost 2 months, started 21 years after injury): much more flexible | Neck aching (Spinal cord injury; Human Subject 4, oral 50,000 IU daily, almost 2 months): largely disappeared
